pIC50: −log10 of the molar value.
Tests used:
[1] = N-Acetyl-Glycyl-Lysine Methyl Ester (G.K. peptide)-Ribose assay; assay type: biochemical; conditions: 24 hours at 37° C.; for Percent Inhibition in the G.K.-Ribose Assay: 1 millimole/L compound, fluorescence 330/415 nm
Protocol: Evaluation of the late glycation products (AGEs), and AGE-inhibition by the new inhibitor compounds was tested by incubation of G.K. peptide in ribose in the presence or the absence of the agent, followed by determination of chromophores generated in the course of glycation and AGE formation through determination of their specific fluorescence. The Nagaraj et al. (1996) method used to evaluate the ability of the compounds of the present invention to inhibit the crosslinking of N-acetylglycyl-lysine methyl ester in the presence of ribose was as follows: Stock Solutions: • 0.5 M sodium phosphate buffer pH 7.4 containing NaN3 0.2 g/L • GK peptide (Sigma) 80 mg/mL in 0.5 M sodium phosphate buffer pH 7.4 • Ribose 800 mM (120 mg/mL) in 0.5 M phosphate buffer Triplicate samples of equal volumes (0.1 mL) of the 3 stock solutions were mixed together, filtered through a 0.2 micron filter (Coming) and incubated under aseptic conditions for 24 hours at 37° C. The inhibitor compounds were added to a final concentration of 1 millimole/L. At the end of the incubation period, samples were analyzed for their specific fluorescence (excitation, 330 nm; emission, 415 nm). The % inhibition by different concentrations of inhibitor was calculated as described above. Aminoguanidine was used at 50 mM as a positive control.

BSA = assay: BSA-Glucose assay (glucose-mediated development of fluorescence of BSA); assay type: biochemical; conditions: BSA 50 mg/mL, 800 mM glucose, 7 days at 37° C., fluorescence 330/410 nm; compound concentration not stated
Protocol: This test is used to evaluate the ability of the inhibitors to inhibit glucose-mediated development of fluorescence of BSA (Ikeda et al., 1996). Triplicate samples of BSA (fraction V, essentially fatty acid free, low endotoxin) from Sigma 50 mg/mL and 800 mM glucose (144 mg/mL) in […] phosphate buffer pH 7.4 containing NaN3 0.2 g/L was incubated under aseptic conditions at 37° C. for 7 days in the presence or absence of various concentrations of the compounds. After 7 days of incubation each sample was examined for the development of specific fluorescence (excitation, 330 nm; emission, 410 nm). The % inhibition of AGE formation in the test sample versus control was calculated for each inhibitor compound. Aminoguanidine (50 mM) was used as a positive control.
This method assays for inhibitors of late glycation and AGE formation (post-Amadori).

[2] = tested on: hemoglobin (HbAlC formation); assay: Hemoglobin-δ-Gluconolactone (δ-Glu) assay (early stage glycation, HbAlC formation in whole blood); assay type: cell-based, human; conditions: 1 millimole/L compound, 50 millimoles/L δ-Glu, whole blood from normal volunteers, 16 hours at 37° C.
Protocol: The δ-Glu assay is a specific method for investigation of inhibitors of the early stage of glycation. Evaluation of early glycation products (Amadori) formation on hemoglobin (HbAlC) is performed by incubating red blood cells with an oxidized form of glucose in the presence and the absence of the inhibitor compound followed by determination of HbAlC in the test versus the control (Rahbar and Nadler., 1999). […] By contrast, glucose requires weeks for an equivalent reaction to occur. We have used this finding to devise an assay method to measure early stage glycation of hemoglobin (Amadori product) and an assay to evaluate the ability of an inhibitor to inhibit HbAlC formation. Briefly, fresh blood was drawn in potassium-EDTA and prepared for incubation within 30 minutes of collection by mixing 200 μL of blood with 40 μL of either phosphate buffered-saline (PBS), pH 7.4, alone, PBS containing 50 millimoles/L δ-Glu (Sigma), or PBS containing 50 millimoles/L δ-Glu plus 1 millimole/L inhibitor. After incubation for 16 hours at 37° C., the percentage of glycated hemoglobin present was determined. The percentage of glycated Hb (HbAlC) was determined using a dedicated ion-exchange HPLC system (BIORAD DIAMAT). Blood samples were analyzed in triplicate. The % inhibition of HbAlC formation by the compound was calculated according to the following formula: ((B−C)/(B−A))×100 where A is HbAlC concentration in the baseline control tube not treated with δ-Glu, B is the HbAlC concentration in blood incubated with δ-Glu, C is the HbAlC content of the test tube treated both with δ-Glu and the inhibitor compound.
The amount of (HbAlC) formation using δ-Glu treated whole blood from normal volunteers using 1 millimole/L of the compounds was calculated. Various inhibitors (compounds LR103-LR115) show different levels of HbAlC depending on their inhibitory potencies.

[3] = Inhibition of copper-catalyzed autooxidation of ascorbic acid (copper-chelating activity); assay type: physicochemical; conditions: read-out: IC50, concentration that inhibited the rate of ascorbic acid oxidation by 50% (copper-chelating activity), FIGS. 3 and 4
Protocol: This assay was performed according to Price et al. (2001). The kinetics of oxidation of ascorbic acid (AA) at the rate of decrease in absorbance at 265 nm was measured. For studies with AGE inhibitors, the ascorbic acid was added to initiate the reaction. Aliquots were removed at 0, 15, 30, 45, and 60 minutes and transferred to autoinjector vials containing DPTA. Samples were analyzed by reverse phase HPLC, (Waters 2690 Millenium 32 Separator Module), equipped with an auto-injector using Xterra™ RP18 column (250×4.6 mm, 5 μm). Solvents and gradient were all used as described in Price et al. (2001). The concentration of each inhibitor compound that inhibited the rate of AA oxidation by 50% was calculated using Prism (Graph Pad-San Diego).

| pIC50 [3] | Compound | Percent Inhibition in the G.K.-Ribose Assay [1] [%] | Percent Inhibition in the BSA-Glucose Assay (BSA) [%] | Percent Inhibition of HbAlC formation in the δ-Glu Assay [2] [%] | Percent Inhibition in the G.K.-Ribose Assay (positive control) ([1]; Aminoguanidine 50 mM) [%] |
| --- | --- | --- | --- | --- | --- |
| – | 4,4′-bis [(methyleneoxyethyleneamino)phenoxy]isobutyric acid [LR112] | 21 | 44.7 | 43.2 | – |
| – | 4-[(3,5-dichlorophenyureido)phenoxyisobutyrylamido]-2-hydroxybenzene-4-carboxylic acid [LR114] | 7.2 | 22.7 | 45.4 | – |
| – | N=C(N)NN [AG, aminoguanidine, reference compound] | – | – | – | 67 |
| ~4.12 | CC(C)(Oc1ccc(N(Cc2ccc(Cl)cc2)C(=O)Nc2ccc(Cl)c(Cl)c2)cc1)C(=O)O [LR103, 1-[(4-chlorobenzyl)-3-(3,4-dichlorophenylureido)]-4-phenoxyisobutyric acid] | 14 | 4 | 43.2 | – |
| ~4.00 | CC(C)(Oc1ccc(NC(=O)Nc2ccc(F)c(Cl)c2)cc1)C(=O)Nc1ccccc1C(=O)O [LR104, 4-(4-fluoro-3-chlorophenylurido)phenoxyisobutyrylamidophenyl-2-carboxylic acid] | 0 | 18.4 | 47.7 | – |
| – | CC(C)(Oc1ccc(N(Cc2c(F)cccc2Cl)C(=O)Nc2ccc(Cl)c(Cl)c2)cc1)C(=O)O [LR105, 1[(2-fluoro-6-chlorobenzyl)-3-(3,4-dichlorophenyureido)]-4-phenoxyisobutyric acid] | 12 | 21.5 | 38.6 | – |
| – | CC(C)(Oc1ccc(NCc2ccc(Cl)cc2)cc1)C(=O)O [LR106, 4-(4-chlorobenzylaminophenoxyisobutyric)acid] | 10.5 | 14.4 | 40.9 | – |
| – | CC(C)(Oc1ccc(NC(=O)Nc2ccc(NC(=O)Nc3ccc(OC(C)(C)C(=O)O)cc3)c(Cl)c2)cc1)C(=O)O [LR107, 2-chlorobenzene-1,4-bis(4-ureidophenoxyisobutyric acid)] | 19.5 | 28.7 | 43.2 | – |
| – | CC(C)(Oc1ccc(N(Cc2ccc(Cl)cc2)C(=O)Nc2cc(Cl)cc(Cl)c2)cc1)C(=O)O [LR108, 1-[(4-chlorobenzyl)-3-(3,5-dichlorophenyureido)]-4-phenoxyisobutyric acid] | 19.7 | 31.1 | 2.0 | – |
| – | CC(C)(Oc1ccc(N(Cc2c(F)cccc2Cl)C(=O)Nc2c(F)cccc2Cl)cc1)C(=O)O [LR109, 1-[(2-fluoro-6-chlorobenzyl)-3-(2-fluoro-6-chlorophenylureido)]-4-phenoxyisobutyric acid] | 9.5 | 34.6 | 56.8 | – |
| – | CC(C)(Oc1ccc(NC(=O)c2c3c(nc4ccccc24)CCCC3)cc1)C(=O)O [LR110, 4-(1,2,3,4-tetrahydroacridine-9-carboxamidophenoxyisobutyric)acid] | 11 | 28.5 | 38.6 | – |
| – | O=C(O)COc1cccc2cccnc12 [LR111, 8-quinolinoxy acetic acid] | 9.7 | 21.6 | 38.6 | – |
| – | CC(=O)N[C@@H](Cc1c[nH]cn1)C(=O)Oc1cccc2cccnc12 [LR113, L-8-quinolinolyl(acetylhistidine)] | 11 | 21.5 | 36.3 | – |
| – | CC(C)(Oc1ccc(NC(=O)Nc2cc(Cl)cc(Cl)c2)cc1)C(=O)N[C@@H](Cc1ccccc1)C(=O)O [LR115, L, α-4-[(3,5-dichlorophenyureido)phenoxyisobutyrylamido]phenylalanine] | 0 | 22.3 | 47.7 | – |

Source: patent US7030133B2, “Inhibitors of formation of advanced glycation endproducts (AGEs)” (City of Hope, priority 1999, dated 2006)
